Test results as given in patent publication US20240175069A1, “BIOSYSTEM FOR PESTICIDE DETECTION” (priority 2022, published 2024).

What was measured:
CYP2B11 [1] = target: T1, CYP2B11 (Canis lupus familiaris, UniProt P24460); experiment: Pesticides screening using CYP2B11 inhibition assay (BOMCC fluorescence, Example 4); settings: 400 μg/L pesticide; 5 pmol/mL CYP2B11; 3 μM BOMCC
T1 sequence (P24460 1-494): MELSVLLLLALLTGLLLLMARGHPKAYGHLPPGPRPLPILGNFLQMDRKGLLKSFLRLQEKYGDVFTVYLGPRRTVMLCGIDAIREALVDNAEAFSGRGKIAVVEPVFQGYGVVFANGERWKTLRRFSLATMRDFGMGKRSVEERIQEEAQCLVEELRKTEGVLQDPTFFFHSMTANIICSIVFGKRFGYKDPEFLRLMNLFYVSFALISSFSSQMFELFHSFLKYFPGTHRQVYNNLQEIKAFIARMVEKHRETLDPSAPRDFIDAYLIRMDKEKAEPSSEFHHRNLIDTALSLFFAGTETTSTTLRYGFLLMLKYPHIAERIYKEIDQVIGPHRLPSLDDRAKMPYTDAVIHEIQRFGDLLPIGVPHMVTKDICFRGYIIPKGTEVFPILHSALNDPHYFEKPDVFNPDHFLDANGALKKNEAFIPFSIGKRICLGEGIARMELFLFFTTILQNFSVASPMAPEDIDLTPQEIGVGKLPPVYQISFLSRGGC
Method: This assay was performed in a 96-well plate by adding 50 μL of chemical standard of pesticides in duplicate, previously prepared in assay buffer with 5% acetonitrile. Enzyme mixture consisted of 5 pmol/mL CYP2B11 (Cypex Limited) in the assay buffer: 75 mM potassium phosphate supplemented with 5 mM MgCl2, pH=8.0, containing 333 mM Glucose-6-phosphate and 30 U/mL Glucose-6-phosphate dehydrogenase. After preparation, 50 μL of enzyme mixture were added to each plate and incubated for 10 minutes at 37° C. After incubation, 10 μL of a substrate mixture containing 30 μM NADP^+ and 3 μM BOMCC in the phosphate buffer was added to the wells. The plate was incubated for 60 minutes at 37° C., and the fluorescence was monitored using 410/460 nm as excitation and emission wavelengths, respectively. A blank sample containing buffer solution was measured in same conditions and used to calculate the inhibition of the enzyme activity that was associated with the presence of pesticides concentration.

CYP2B10 [2] = target: T2, CYP2B10 (Mus musculus, UniProt P12791); experiment: Pesticides screening using CYP2B10 inhibition assay (MOBFC fluorescence, Example 1); format: biochemical; set-up: purchased Cypex Limited; bacterial membranes, E. coli by own knowledge; settings: 15 pmol/mL CYP2B10, 10 μM MOBFC, 10% acetonitrile standard; for I (%) at 200 μg/L: 200 μg/L pesticide; for I (%) at 400 μg/L: 400 μg/L pesticide
T2 sequence (P12791 1-491 isoform P12791-2 L55F/V178I/R251K/K253R/N280H/A281T/V298A/H308R/T321A/S349T/L376M/Q412H/S444N): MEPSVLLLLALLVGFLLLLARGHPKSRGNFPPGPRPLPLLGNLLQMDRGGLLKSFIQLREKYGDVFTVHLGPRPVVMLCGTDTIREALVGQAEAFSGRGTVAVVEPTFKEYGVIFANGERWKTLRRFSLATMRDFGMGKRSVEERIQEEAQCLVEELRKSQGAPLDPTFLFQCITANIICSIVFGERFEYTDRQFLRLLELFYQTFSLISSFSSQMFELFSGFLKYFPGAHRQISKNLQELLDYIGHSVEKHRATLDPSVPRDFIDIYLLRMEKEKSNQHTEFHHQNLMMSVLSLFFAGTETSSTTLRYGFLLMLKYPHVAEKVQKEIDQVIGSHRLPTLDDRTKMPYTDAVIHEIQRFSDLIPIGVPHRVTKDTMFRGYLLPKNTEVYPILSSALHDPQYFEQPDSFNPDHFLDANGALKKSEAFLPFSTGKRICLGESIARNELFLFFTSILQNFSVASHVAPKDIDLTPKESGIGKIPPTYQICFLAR
Method: An inhibition assay was performed using the enzyme CYP2B10 by contacting it to 200 μg/L and 400 μg/L of chlorpyrifos-ethyl, chlorpyrifos-methyl, prochloraz, diazinon and dicofol.

CYP2B10 [3] = target: T2, CYP2B10; experiment: CYP2B10 assay on extracts of spiked mushrooms, validation (Example 7); settings: mushroom spiked at 0.01 mg/kg, extracted; 15 pmol/mL CYP2B10; 10 μM MOBFC; triplicates over seven days
Method: The bioassay was performed in 500 μL tubes and in triplicate. 50 μL of extract was added to the tubes. Enzyme mixture was prepared following the protocols provided by the manufacturer (Cypex Limited) and consisted of 15 pmol/ml of CYP2B10 Bactosomes in the assay buffer: 75 mM potassium phosphate supplemented with 5 mM MgCl2, pH=8.0, containing 333 mM Glucose-6-phosphate and 30 U/mL Glucose-6-phosphate dehydrogenase. After the preparation, 50 μL of enzyme mixture were added to each tube. After reach room temperature 10 μL of substrate mixture (10 μM MOBFC and 30 μM NADP^+ diluted in potassium phosphate buffer 50 mM) was added to each tube. The tubes were incubated 60 minutes at 37° C. and when time passed, fluorescence signal was measured with a fluorometric reader, 370 nm and 520 nm were the excitation and emission wavelengths, respectively. A blank sample, buffer solution, was measured at the same time and the reduction of the signal, inhibition of enzyme activity, was calculated and associated with the presence of pesticide molecules.
The validation was carried out during seven days, comparing the signal obtained for triplicate samples of blank and doped mushroom.

CYP2B10 [4] = target: T2, CYP2B10; experiment: CYP2B10 inhibition assay with MOBFC/MOFC reporter substrate mixes (Example 3); format: biochemical; set-up: purchased Cypex Limited; bacterial membranes, E. coli by own knowledge; settings: 400 μg/L dicofol
Method: The enzyme CYP2B10 was exposed to 400 μg/L of dicofol pesticide, and the inhibition percentage was registered when reporter substrate concentration and composition was changed.

CYP2B11 [5] = target: T1, CYP2B11; experiment: Effect of dimethoate in CYP2B11 assay (BOMCC fluorescence, Example 2); format: biochemical; set-up: purchased Cypex Limited; settings: dog, CYP2B11 enzyme (Cypex Limited), pH 8, probe BOMCC (3 μM in substrate mixture); 2 mg/L dimethoate; 10 pmol/mL CYP2B11; 3 μM BOMCC
Description: Considering the inhibition percentage determined, it is possible to confirm that CYP2B11 enzyme is susceptible to be inhibited by dimethoate pesticide.

Dog CYP2B11 = target: T3, Dog CYP2B11 (Canis lupus familiaris, UniProt P24460); experiment: Metrafenone inhibition assay on CYP2B11 (Example 5); format: biochemical; settings: 500 μg/L metrafenone; CYP2B11 5 pmol/mL; BOMCC 3 μM
T3 construct: purchased Cypex Limited; host or cells: bactosomes (bacterial membranes; E. coli by own knowledge)
T3 sequence (P24460 1-494): T1 sequence (P24460 1-494)
Method: (§1) This assay was performed in a 96-well plate by adding 50 μL of 500 μg/L of metrafenone chemical standard to wells in duplicate, previously prepared in assay buffer with 5% acetonitrile. CYP2B11 enzyme mixture consisted of 5 pmol/mL Dog CYP2B11 bactosomes (Cypex Limited) in the assay buffer: 75 mM potassium phosphate supplemented with 5 mM MgCl2, pH=8.0, containing 333 mM Glucose-6-phosphate and 30 U/mL Glucose-6-phosphate dehydrogenase. CYP2B6 enzyme mixture consisted of 2.5 pmol/ml of Vivid® Human CYP2B6 baculosomes (Thermofisher Scientific) in the assay buffer: 75 mM potassium phosphate, pH=8.0, containing 333 mM Glucose-6-phosphate and 30 U/mL Glucose-6-phosphate dehydrogenase.
(§2) After preparation, 50 μL of each enzyme mixture were added to each plate and incubated for 10 minutes at 37° C. After incubation, 10 μL of a substrate mixture containing 30 μM NADP^+ and 3 μM BOMCC in the phosphate buffer was added to the wells. The plate was incubated for 60 minutes at 37° C., and the fluorescence was monitored using 410/460 nm as excitation and emission wavelengths, respectively. A blank sample containing buffer solution was measured in same conditions and used to calculate the inhibition percentage of the activity of the enzymes in presence of the pesticide metrafenone.

Human CYP2B6 = target: T4, Human CYP2B6 (Homo sapiens, UniProt P20813); experiment: Metrafenone inhibition assay on human CYP2B6 (Example 5); format: biochemical; settings: 500 μg/L metrafenone; CYP2B6 2.5 pmol/mL; BOMCC 3 μM
T4 construct: purchased Thermofisher Scientific; host or cells: baculosomes (microsomes of baculovirus-infected insect cells, by own knowledge)
T4 sequence (P20813 1-491): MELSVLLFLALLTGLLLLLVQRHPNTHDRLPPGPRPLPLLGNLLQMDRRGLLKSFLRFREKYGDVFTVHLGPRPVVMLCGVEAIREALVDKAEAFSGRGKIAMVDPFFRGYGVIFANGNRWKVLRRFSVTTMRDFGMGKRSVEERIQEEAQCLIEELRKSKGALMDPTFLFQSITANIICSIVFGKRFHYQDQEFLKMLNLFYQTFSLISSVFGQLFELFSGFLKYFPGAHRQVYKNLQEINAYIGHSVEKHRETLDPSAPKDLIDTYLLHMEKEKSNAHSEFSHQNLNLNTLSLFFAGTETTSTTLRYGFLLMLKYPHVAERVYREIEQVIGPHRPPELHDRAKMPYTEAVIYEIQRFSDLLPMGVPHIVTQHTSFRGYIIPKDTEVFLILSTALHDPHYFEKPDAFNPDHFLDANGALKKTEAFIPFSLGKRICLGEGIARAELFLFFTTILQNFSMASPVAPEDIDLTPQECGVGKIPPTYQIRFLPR
Method: as §1, §2

N#Cc1c(Cl)c(Cl)c(Cl)c(C#N)c1Cl [Chlorothalonil]
I(%) (CYP2B11 [1]): 62.3%

CCOP(=S)(OCC)Oc1nc(Cl)c(Cl)cc1Cl [Chlorpyrifos-ethyl]
I (%) at 200 μg/L (CYP2B10 [2]): 26.8% | I (%) at 400 μg/L (CYP2B10 [2]): 46.8% | I(%) (CYP2B11 [1]): 94.2%

COP(=S)(OC)Oc1nc(Cl)c(Cl)cc1Cl [Chlorpyrifos-methyl]
I (%) at 200 μg/L (CYP2B10 [2]): 49.5% | I (%) at 400 μg/L (CYP2B10 [2]): 77.9% | Average I (%) (CYP2B10 [3]): 46.8% | I(%) (CYP2B11 [1]): 96.0%

CC1(C)C(C=C(Cl)Cl)C1C(=O)OC(C#N)c1cccc(Oc2ccccc2)c1 (stereo not drawn) [Cypermethrin]
I(%) (CYP2B11 [1]): 17.5%

Clc1ccc(C(c2ccc(Cl)cc2)C(Cl)(Cl)Cl)cc1 [DDT]
I(%) (CYP2B11 [1]): 70.7%

CCOP(=S)(OCC)Oc1cc(C)nc(C(C)C)n1 [Diazinon]
I(%) (CYP2B11 [1]): 84.1%

OC(c1ccc(Cl)cc1)(c1ccc(Cl)cc1)C(Cl)(Cl)Cl [Dicofol]
I(%) (CYP2B10 [4]; MOBFC 0.0 μM, MOFC 10.0 μM): 72.9% | I(%) (CYP2B10 [4]; MOBFC 2.0 μM, MOFC 8.0 μM): 50.6% | I(%) (CYP2B10 [4]; MOBFC 3.3 μM, MOFC 6.6 μM): 37.4% | I(%) (CYP2B10 [4]; MOBFC 5.0 μM, MOFC 5.0 μM): 24.3% | I(%) (CYP2B10 [4]; MOBFC 10.0 μM, MOFC 0.0 μM): 16.8% | I (%) at 200 μg/L (CYP2B10 [2]): 19.0% | I (%) at 400 μg/L (CYP2B10 [2]): 30.6% | I(%) (CYP2B11 [1]): 79.0%

CC(C)NC(=O)N1CC(=O)N(c2cc(Cl)cc(Cl)c2)C1=O [Iprodione]
I(%) (CYP2B11 [1]): 15.9%

CCCC(Cn1cncn1)c1ccc(Cl)cc1Cl (stereo not drawn) [Penconazole]
I(%) (CYP2B11 [1]): 87.8%

CCCN(CCOc1c(Cl)cc(Cl)cc1Cl)C(=O)n1ccnc1 [Prochloraz]
I (%) at 200 μg/L (CYP2B10 [2]): 60.3% | I (%) at 400 μg/L (CYP2B10 [2]): 72.0% | Average I (%) (CYP2B10 [3]): 54.2% | I(%) (CYP2B11 [1]): 94.6%

CC12CC1(C)C(=O)N(c1cc(Cl)cc(Cl)c1)C2=O (stereo not drawn) [Procymidone]
I(%) (CYP2B11 [1]): 24.5%

Fc1ccc(Oc2ccnc3cc(Cl)cc(Cl)c23)cc1 [Quinoxyfen]
I(%) (CYP2B11 [1]): 18.1%

CNC(=O)CSP(=S)(OC)OC [dimethoate]
inhibition at 60 min, 2 mg/L (CYP2B11 [5]): 56.8%

COc1cc(C)c(C(=O)c2c(OC)ccc(Br)c2C)c(OC)c1OC [metrafenone]
I(%) (Dog CYP2B11): 35.2% | I(%) (Human CYP2B6): 0.0%
